Measured values published in patent US9976183B2, “Biomarkers for cancers responsive to modulators of HEC1 activity” (TAIVEX THERAPEUTICS CORPORATION, priority 2011, dated 2018).
Blank lines part the entries; values can stand above or below the compound they belong to.

How the values were obtained:
Type in all cases: cell-based
Hep3B [1] = experiment: Synergy of Hec1 inhibitor with cytotoxic drug (combination index, MTS); parameters: key to Combination Index: CI = (CA,X/ICx,A)+(CB,X/ICx,B) at x% drug effect
Protocol: (§1) Synergy: GI50s for selected drugs were determined and used to calculate a concentration ratio for use synergy assays with Hec1 inhibitors. Cells were treated with drugs 24 hours after being seeded in appropriate seeding numbers into 96 well plates containing low glucose DME with 10% FBS. […] Cell viability was determined by MTS assay using a CellTiter 96® Aqueous non-radioactive cell proliferation assay system (Promega, Madison, Wis. 53711 USA) according to the manufacturer's instructions. Optical density was determined using a Bio-Tek 340 spectrophotometer (Bio-Tek, Winooski, Vt. 05404) and were then processed using Excel (Microsoft, Redmond, Wash. 98052-7329) and GraphPad Prism 5 linear regression software (GraphPad Software, La Jolla, Calif. 92037 USA) to determine concentration-response curves for calculating relative GI50s. Synergy was determined by calculating a combination index value using the formula CI (combination index)=(CA,X/ICx,A)+(CB,X/ICx,B), where CA,X and CB,X are the concentrations of drug A and drug B used in combination to achieve x % drug effect. ICx,A and ICx,B are the concentrations for single agents to achieve the same effect.
(§2) Hec1 inhibitor-responsive cancer cells used for screening were treated with a mixture of Hec1 inhibitor and select anti-cancer drug at appropriate concentration ratios and evaluated for cell viability.

Huh7 [2] = experiment: as above; parameters: key to Combination Index: CI = (CA,X/ICx,A)+(CB,X/ICx,B) at x% drug effect
Protocol: as §1, §2

PCL/PRF/5 = experiment: as above; parameters: key: CI = (CA,X/ICx,A)+(CB,X/ICx,B) at x% drug effect
Protocol: as §1, §2

HepG2 [3] = experiment: as above; parameters: key: CI = (CA,X/ICx,A)+(CB,X/ICx,B) at x% drug effect
Protocol: as §1, §2

NCI/ADR-RES = experiment: Drug sensitivity, MTS assay, drug resistant cell line; settings: Homo sapiens, multi-drug resistant uterine sarcoma
Protocol: (§3) Drug sensitivity: Cell lines were screened for drug sensitivity by treatment with specified drugs 24 hours after seeding in appropriate seeding numbers into 96 well plates containing low glucose DME with 10% FBS. The drug was added to the plate in triplicate wells, and the cells are incubated in drug treated medium for 96 hours before cell viability was determined by MTS assay using CellTiter 96® Aqueous non-radioactive cell proliferation assay system (Promega, Madison, Wis. 53711 USA). The MTS assay was performed according to the manufacturer's instructions. Optical density was measured using a Bio-Tek 340 spectrophotometer (Bio-Tek, Winooski, Vt. 05404) and optical readings were then processed in Excel (Microsoft, Redmond, Wash. 98052-7329) and GraphPad Prism 5 linear regression software (GraphPad Software, La Jolla, Calif. 92037 USA) to determine concentration-response curves for calculating relative GI50s. […] The % growth inhibition of the test drug on cells were calculated as: [1−(Test Value)/(Control Value)]×100; these values were used to plot concentration-response curves, and then analyzed with linear regression software.

K562R = experiment: as above; settings: Homo sapiens, K-562R, Gleevec resistant myelogenous leukemia
Protocol: as §3

MEX-SA/Dx5 = experiment: as above; settings: MEX-SA/Dx5, multi-drug resistant uterine sarcoma
Protocol: as §3

HeLa [4] = experiment: Synergy of Hec1 inhibitor with cytotoxic drug (combination index, MTS)
Protocol: as §1, §2

MB-231 = experiment: as above
Protocol: as §1, §2

K562 [5] = experiment: as above
Protocol: as §1, §2

MB-468 = experiment: as above
Protocol: as §1, §2

ZR-75-1 = experiment: Drug sensitivity, MTS cell viability assay (GI50); settings: Homo sapiens, ZR-75-1, 96 hours
Protocol: as §3

HeLa [6] = experiment: Drug sensitivity, MTS cell viability assay (GI50); settings: Homo sapiens, 96 hours
Protocol: as §3

MDA-MB-468 = experiment: Drug sensitivity, MTS cell viability assay (GI50)
Protocol: as §3

MDA-MB-231 = experiment: Drug sensitivity, MTS cell viability assay (GI50)
Protocol: as §3

Hep3B [7] = experiment: Drug sensitivity, MTS cell viability assay (GI50); settings: Homo sapiens, 96 h
Protocol: as §3

HepG2 [8] = experiment: Drug sensitivity, MTS cell viability assay (GI50); settings: Homo sapiens; for GI50: HepG2, 96 hours, MTS
Protocol: as §3

Hs578T = experiment: Drug sensitivity, MTS cell viability assay (GI50); settings: Homo sapiens, Hs-578T, 96 hours
Protocol: as §3

Huh7 [9] = experiment: Drug sensitivity, MTS cell viability assay (GI50)
Protocol: as §3

PLC/PRF/5 = experiment: Drug sensitivity, MTS cell viability assay (GI50); settings: Homo sapiens, PLC/PRF/5, 96 hours
Protocol: as §3

T47D = experiment: Drug sensitivity, MTS cell viability assay (GI50); settings: Homo sapiens, 96 hours
Protocol: as §3

MDA-MB-453 = experiment: Drug sensitivity, MTS cell viability assay (GI50); settings: Homo sapiens, MDA-MB-453, 96 hours
Protocol: as §3

K562 [10] = experiment: Drug sensitivity, MTS cell viability assay (GI50); settings: Homo sapiens, K562, 96 h
Protocol: as §3

[11] = in combination with doxorubicin
[12] = in combination with Taxol (paclitaxel)
[13] = Homo sapiens, Huh-7, 96 h, Huh7, 96 hours, MTS

Structure (SMILES): COc1ccc(Oc2cc(C)c(-c3csc(NC(=O)c4ccnc(F)c4)n3)c(C)c2)cc1 [compound 101015, 2-fluoro-N-(4-(4-(4-methoxyphenoxy)-2,6-dimethylphenyl)thiazol-2-yl)isonicotinamide]
- Combination Index (Hep3B [1]; in combination with KX01): 2.32
- Combination Index (Hep3B [1]; in combination with Taxol): 2.38
- Combination Index (Hep3B [1]; [11]): 2.00
- Combination Index (Hep3B [1]; in combination with sorafenib): 1.91
- Combination Index (Hep3B [1]; in combination with topotecan): 1.05
- Combination Index (Huh7 [2]; in combination with KX01 (KXO1)): 1.08
- Combination Index (Huh7 [2]; [12]): 0.32
- Combination Index (Huh7 [2]; [11]): 0.54
- Combination Index (Huh7 [2]; in combination with sorafenib): 1.08
- Combination Index (Huh7 [2]; in combination with topotecan): 0.62
- Combination Index (PCL/PRF/5; in combination with KX01): 1.31
- Combination Index (PCL/PRF/5; in combination with Taxol): 0.99
- Combination Index (PCL/PRF/5; [11]): 1.65
- Combination Index (PCL/PRF/5; in combination with sorafenib): 1.15
- Combination Index (PCL/PRF/5; in combination with topotecan): 1.17
- Combination Index (HepG2 [3]; in combination with KX01): 1.68
- Combination Index (HepG2 [3]; [11]): 1.74
- Combination Index (HepG2 [3]; in combination with sorafenib): 0.89
- Combination Index (HepG2 [3]; in combination with topotecan): 1.92
- GI50 (NCI/ADR-RES): 21.6 nM
- GI50 (K562R): 26 nM
- GI50 (MEX-SA/Dx5): 34.9 nM
- Combination Index (HeLa [4]; in combination with Taxol): 1.01
- Combination Index (HeLa [4]; [11]): 6.83
- Combination Index (HeLa [4]; in combination with topotecan): 1.58
- Combination Index (MB-231; [12]): 0.98
- Combination Index (MB-231; [11]): 1.75
- Combination Index (MB-231; in combination with topotecan): 0.85
- Combination Index (K562 [5]; [12]): 0.62
- Combination Index (K562 [5]; [11]): 0.62
- Combination Index (K562 [5]; in combination with topotecan): 1.12
- Combination Index (MB-468; in combination with Taxol): 1.16
- Combination Index (MB-468; [11]): 1.23
- Combination Index (MB-468; in combination with topotecan): 0.74

Structure (SMILES): CC(=O)O[C@H]1C(=O)[C@@]2(C)[C@H]([C@H](OC(=O)c3ccccc3)[C@]3(O)C[C@H](OC(=O)[C@H](O)[C@@H](NC(=O)c4ccccc4)c4ccccc4)C(C)=C1C3(C)C)[C@]1(OC(C)=O)CO[C@@H]1C[C@@H]2O [paclitaxel]
- GI50 (ZR-75-1; bound given in μM): > 10 µM
- GI50 (HeLa [6]): 7.8 nM
- GI50 (MDA-MB-468; Homo sapiens, MDA-MB-468, 96 h): 2.38 nM
- GI50 (MDA-MB-231; Homo sapiens, MDA-MB-231, 96 h): 3 nM
- GI50 (MDA-MB-231; MDA-MB-231, 96 hours): 4.91 nM
- GI50 (Hep3B [7]): 9.47 nM
- GI50 (HepG2 [8]; bound given in μM): > 50 µM
- IC50 (HepG2 [8]; HepG2, Taxol-resistant): > 10000 nM
- GI50 (Hs578T): 8.39 nM
- GI50 (Huh7 [9]; Huh7, 96 hours, MTS): 93.5 nM
- GI50 (PLC/PRF/5): 8.58 nM
- GI50 (T47D): 3.19 nM
- GI50 (MDA-MB-453): 1.42 nM
- GI50 (NCI/ADR-RES): 2330 nM
- GI50 (K562R): 34.5 nM
- GI50 (MEX-SA/Dx5): 6250 nM

Structure (SMILES): CC[C@@]1(O)C(=O)OCc2c1cc1n(c2=O)Cc2cc3c(CN(C)C)c(O)ccc3nc2-1 [topotecan]
- GI50 (ZR-75-1): 0.0363 µM
- GI50 (HeLa [6]): 637 nM
- GI50 (MDA-MB-468; Homo sapiens, MDA-MB-468, 96 h): 10.7 nM
- GI50 (K562 [10]): 36.1 nM
- GI50 (MDA-MB-231; Homo sapiens, MDA-MB-231, 96 h): 347 nM
- GI50 (Hep3B [7]): 422 nM
- GI50 (HepG2 [8]): 0.435 µM
- GI50 (Hs578T): 4960 nM
- GI50 (Huh7 [9]; Huh7, 96 hours, MTS): 50.9 nM
- GI50 (PLC/PRF/5): 174 nM
- GI50 (T47D): 9.43 nM
- GI50 (MDA-MB-453): 92.3 nM

Structure (SMILES): COc1cccc2c1C(=O)c1c(O)c3c(c(O)c1C2=O)C[C@@](O)(C(=O)CO)C[C@@H]3O[C@H]1C[C@H](N)[C@H](O)[C@H](C)O1 [doxorubicin]
- GI50 (ZR-75-1): 0.0929 µM
- GI50 (HeLa [6]): 242 nM
- GI50 (MDA-MB-468; Homo sapiens, MDA-MB-468, 96 h): 28.3 nM
- GI50 (MDA-MB-468; MDA-MB-468, 96 hours): 27 nM
- GI50 (K562 [10]): 36.2 nM
- GI50 (Hep3B [7]): 248 nM
- GI50 (HepG2 [8]): 0.746 µM
- GI50 (Hs578T): 711 nM
- GI50 (Huh7 [9]; [13]): 183 nM
- GI50 (Huh7 [9]; Homo sapiens, Huh-7, Huh7, unit inferred): 183 nM
- GI50 (PLC/PRF/5): 69.7 nM
- GI50 (T47D): 11.9 nM
- GI50 (MDA-MB-453): 158 nM

Continued, in another order:

- GI50 (MDA-MB-468; Homo sapiens, MDA-MB-468, 96 h): 3170 nM
- GI50 (MDA-MB-231; Homo sapiens, MDA-MB-231, 96 h): 3040 nM
- GI50 (Hep3B [7]): 3680 nM
- GI50 (HepG2 [8]): 8.25 µM
- GI50 (Huh7 [9]; [13]): 4500 nM
- GI50 (T47D): 1730 nM
- GI50 (MDA-MB-453): 2520 nM
Structure (SMILES): CNC(=O)c1cc(Oc2ccc(NC(=O)Nc3ccc(Cl)c(C(F)(F)F)c3)cc2)ccn1 [sorafenib]
- GI50 (ZR-75-1): 4.34 µM
- GI50 (PLC/PRF/5): 3760 nM

- GI50 (Huh7 [9]; Huh7, 96 hours, MTS): 27.2 nM
Structure (SMILES): O=C(Cc1ccc(-c2ccc(OCCN3CCOCC3)cc2)cn1)NCc1ccccc1 [KX01]
